Results taken from patent publication US8791123B2, “Substituted pyrazolo[1,5-a]pyrimidine compounds as Trk kinase inhibitors” (Array Biopharma, Inc., priority 2009, dated 2014).
Read-outs that look alike come from different tables or passages of the source.

Key:
Assay type in all cases: biochemical
Human Jak2 kinase domain = Human Jak2 kinase domain (Homo sapiens (Human), UniProt O60674); experiment: Jak2 Inhibition Assay (Omnia kinase assay); conditions: 500 μM ATP
[1] = molecular target: TrkA (histidine-tagged recombinant human TrkA, cytoplasmic domain) (Homo sapiens (Human), UniProt P04629); experiment: TrkA ELISA Assay
How it was run: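 His-tagged human TrkA cytoplasmic domain phosphorylated poly(Glu,Ala,Tyr 6:3:1) coated at 0.025 mg/mL, with inhibitors present. Phosphotyrosine was detected with HRP-conjugated PY20 antibody (0.2 μg/mL) and TMB, read as absorbance at 450 nm after phosphoric acid stop.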

Human Tyk2 kinase domain = Human Tyk2 kinase domain (Homo sapiens (Human), UniProt P29597); experiment: Tyk2 Inhibition Assay (Omnia kinase assay); conditions: Table 2; 500 μM ATP
Method: (§1) The assays described in Examples C, D, E and F for the determination of JAK1, JAK2, JAK3 and Tyk2 kinase activity, respectively, utilized the Omnia® Kinase fluorescence peptide substrate-based technology (Invitrogen). […] The reactions were therefore read at excitation 360 nm and emission was measured at 485 nm every 50 seconds for 45 minutes using a PerkinElmer EnVision Multilabel Plate Reader.
(§2) The final buffer conditions for each of the JAK1, JAK2, JAK3 and Tyk2 assays were as follows: 25 mM HEPES, pH 7.4, 10 mM MgCl2, 0.01% Triton X-100 and 1 mM DTT.
(§3) Compounds were prepared at 50× the final concentration in DMSO by conducting 3-fold serial dilutions from a 500-μM or 1000-μM intermediate dilution to give a 10-point dosing curve having a high dose of 10 or 20 μM. Two-μL aliquots of these were transferred to a fresh plate for a ten-fold intermediate dilution with assay buffer. Five-μL aliquots of the diluted compounds were then transferred to 20-μL of assay mixtures described in Examples C, D, E and F for a final concentration of DMSO of 2%. A standard or reference compound was typically included on each assay plate to validate that plate. For each plate, percent of control (POC) values were calculated for each well according to the following equation:
(§4) [formula] • where • Xmax=Average Uninhibited Controls • Xmin=Average Background IC50's were estimated from the POC's using a standard 4-parameter logistic model:
(§5) [formula] • where • A=Minimum Y (Bottom Asymptote) • B=Maximum Y (Top Asymptote) • C=EC50 • D=Slope Factor • X=Compound Concentration (nM) • Y=POC
(§6) The IC50 is defined as the concentration of inhibitor at which the POC equals 50 for the fitted curve.
Compounds of Formula I were screened for their ability to inhibit Tyk2 using the general enzyme inhibition assay method, in which the assay mixture contained 500 μM ATP, 8 μM Omnia® Y12 peptide (Catalog # IVGN KPZ3121C; Invitrogen Corporation, Carlsbad, Calif.) and 1 nM Tyk2 in a total volume of 20 μL. Human Tyk2 kinase domain, comprising amino acids 886 to 1187 with 10 additional histidine residues (histidine tag) on the carboxy terminus, was expressed and purified from bacculovirus in-house at Array BioPharma Inc. (Boulder, Colo.). The histidine tag was cleaved after purification using standard conditions.

[2] = molecular target: GST-tagged human Jak1 kinase domain (Homo sapiens (Human), UniProt P23458); experiment: Jak1 Inhibition Assay (Omnia kinase assay); conditions: Table 2; 500 μM ATP
Method: as §1, §2, §3, §4, §5, §6
Compounds of Formula I were screened for their ability to inhibit Jak1 using the general enzyme inhibition assay method, in which the assay mixture contained 500 μM ATP, 8 μM Omnia® Y12 peptide (Catalog # IVGN KPZ3121C; Invitrogen Corporation, Carlsbad, Calif.) and 5 nM Jak1 in a total volume of 20 μL. […] (catalog # IVGN PV4774).

[3] = molecular target: GST-tagged human Jak3 kinase domain (Homo sapiens (Human), UniProt P52333); experiment: Jak3 Inhibition Assay (Omnia kinase assay); conditions: Table 2; 500 μM ATP
Method: as §1, §2, §3, §4, §5, §6
Compounds of Formula I were screened for their ability to inhibit Jak3 using the general enzyme inhibition assay method, in which the assay mixture contained 500 μM ATP, 10 μM Omnia® Y7 peptide (Catalog # IVGN KNZ3071C, Invitrogen Corporation, Carlsbad, Calif.) and 1.5 nM Jak3 in a total volume of 20 μL. GST-tagged human Jak3 kinase domain comprising amino acids 781-1124 was purchased from Invitrogen Corporation, Carlsbad, Calif. (catalog # IVGN PV3855).

[4] = Table 1, >1000 nM when >50% inhibition not observed at 1000 nM, read-out: Jak2 Enzyme IC50
[5] = Table 1, ELISA, 500 μM ATP, read-out: TrkA Enzyme IC50

Human Tyk2 kinase domain, sequence (P29597 886-1187): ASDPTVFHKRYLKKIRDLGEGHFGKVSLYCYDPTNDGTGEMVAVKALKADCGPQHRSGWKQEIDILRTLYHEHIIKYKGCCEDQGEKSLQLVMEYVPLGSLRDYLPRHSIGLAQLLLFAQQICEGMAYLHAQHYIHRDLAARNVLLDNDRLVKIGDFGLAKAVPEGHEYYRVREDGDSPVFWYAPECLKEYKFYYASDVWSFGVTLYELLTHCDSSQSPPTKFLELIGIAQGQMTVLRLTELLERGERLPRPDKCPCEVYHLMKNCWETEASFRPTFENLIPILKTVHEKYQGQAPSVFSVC
GST-tagged human Jak1 kinase domain, sequence (P23458 866-1154): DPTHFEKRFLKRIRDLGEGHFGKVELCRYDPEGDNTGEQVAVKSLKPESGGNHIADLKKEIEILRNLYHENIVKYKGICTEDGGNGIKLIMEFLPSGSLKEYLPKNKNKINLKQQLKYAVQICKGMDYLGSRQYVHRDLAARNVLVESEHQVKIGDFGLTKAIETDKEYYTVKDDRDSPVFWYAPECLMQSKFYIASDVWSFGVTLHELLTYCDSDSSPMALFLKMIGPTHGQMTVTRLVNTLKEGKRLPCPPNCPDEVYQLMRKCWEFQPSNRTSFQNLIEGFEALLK
GST-tagged human Jak3 kinase domain, sequence (P52333 781-1124): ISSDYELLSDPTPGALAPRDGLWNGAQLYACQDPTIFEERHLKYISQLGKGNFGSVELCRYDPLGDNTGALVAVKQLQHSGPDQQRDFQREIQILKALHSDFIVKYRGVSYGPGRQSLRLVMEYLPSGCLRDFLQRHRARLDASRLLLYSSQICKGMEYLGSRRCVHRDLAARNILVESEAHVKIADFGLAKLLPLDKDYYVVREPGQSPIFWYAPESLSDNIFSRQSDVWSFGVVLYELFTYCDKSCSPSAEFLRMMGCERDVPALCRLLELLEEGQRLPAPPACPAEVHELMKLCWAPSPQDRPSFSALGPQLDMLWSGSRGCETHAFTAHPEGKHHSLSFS
Human Jak2 kinase domain, sequence (O60674 808-1132): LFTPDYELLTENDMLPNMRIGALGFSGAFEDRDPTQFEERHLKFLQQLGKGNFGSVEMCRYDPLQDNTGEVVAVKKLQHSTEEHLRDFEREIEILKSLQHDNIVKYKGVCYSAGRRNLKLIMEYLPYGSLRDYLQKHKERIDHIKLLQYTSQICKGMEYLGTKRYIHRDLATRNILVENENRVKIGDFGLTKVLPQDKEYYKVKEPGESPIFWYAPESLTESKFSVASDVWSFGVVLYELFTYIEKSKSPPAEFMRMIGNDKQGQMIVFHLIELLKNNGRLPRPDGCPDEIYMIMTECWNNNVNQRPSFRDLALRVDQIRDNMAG
TrkA (histidine-tagged recombinant human TrkA, cytoplasmic domain), sequence (P04629 440-796): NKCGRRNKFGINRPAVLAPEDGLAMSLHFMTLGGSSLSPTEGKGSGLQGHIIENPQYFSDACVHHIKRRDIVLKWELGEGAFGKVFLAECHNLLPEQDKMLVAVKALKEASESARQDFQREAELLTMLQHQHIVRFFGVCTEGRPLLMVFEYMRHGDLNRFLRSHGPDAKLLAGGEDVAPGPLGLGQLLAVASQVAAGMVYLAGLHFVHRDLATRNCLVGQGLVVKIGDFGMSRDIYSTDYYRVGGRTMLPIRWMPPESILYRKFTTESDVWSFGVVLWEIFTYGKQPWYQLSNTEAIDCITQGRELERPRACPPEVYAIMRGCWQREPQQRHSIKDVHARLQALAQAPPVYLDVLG

## O=C(NC1(C(F)(F)F)CC1)c1cnn2ccc(N3CCC[C@@H]3c3cncc(F)c3)nc12 [Example 98, (R)-5-(2-(5-fluoropyridin-3-yl)pyrrolidin-1-yl)-N-(1-(trifluoromethyl)cyclopropyl)pyrazolo[1,5-a]pyrimidine-3-carboxamide]
Human Jak2 kinase domain; [4]
  IC50: > 1000 nM
Human Jak2 kinase domain; Table 2, read-out: Jak2 IC50
  IC50: > 1000 nM
[1]; [5]
  IC50: 9 nM
[1]; Table 2, read-out: TrkA IC50
  IC50: 9 nM
Human Tyk2 kinase domain
  IC50: > 1000 nM
[2]
  IC50: > 1000 nM
[3]
  IC50: > 1000 nM

## C[C@@H](NC(=O)c1cnn2ccc(N3CCC[C@@H]3c3cncc(F)c3)nc12)C1CC1 [Example 123, N-((R)-1-cyclopropylethyl)-5-((R)-2-(5-fluoropyridin-3-yl)pyrrolidin-1-yl)pyrazolo[1,5-a]pyrimidine-3-carboxamide]
Human Jak2 kinase domain; [4]
  IC50: > 1000 nM
Human Jak2 kinase domain; Table 2, read-out: Jak2 IC50
  IC50: > 1000 nM
[1]; [5]
  IC50: 6.4 nM
[1]; Table 2, read-out: TrkA IC50
  IC50: 6.3 nM
Human Tyk2 kinase domain
  IC50: > 1000 nM
[2]
  IC50: > 1000 nM
[3]
  IC50: > 1000 nM

## O=C(NCC1CC1)c1cnn2ccc(N3CCC[C@@H]3c3cncc(F)c3)nc12 [Example 106, (R)-N-(cyclopropylmethyl)-5-(2-(5-fluoropyridin-3-yl)pyrrolidin-1-yl)pyrazolo[1,5-a]pyrimidine-3-carboxamide]
Human Jak2 kinase domain; [4]
  IC50: > 1000 nM
Human Jak2 kinase domain; Table 2, read-out: Jak2 IC50
  IC50: > 1000 nM
[1]; [5]
  IC50: 7.7 nM
[1]; Table 2, read-out: TrkA IC50
  IC50: 7.6 nM
Human Tyk2 kinase domain
  IC50: > 1000 nM
[2]
  IC50: > 1000 nM
[3]
  IC50: > 1000 nM

## C[C@H](NC(=O)c1cnn2ccc(N3CCC[C@@H]3c3cncc(F)c3)nc12)C1CC1 [Example 124, N-((S)-1-cyclopropylethyl)-5-((R)-2-(5-fluoropyridin-3-yl)pyrrolidin-1-yl)pyrazolo[1,5-a]pyrimidine-3-carboxamide]
Human Jak2 kinase domain; [4]
  IC50: 759 nM
Human Jak2 kinase domain; Table 2, read-out: Jak2 IC50
  IC50: 759 nM
[1]; [5]
  IC50: 2.9 nM
[1]; Table 2, read-out: TrkA IC50
  IC50: 2.9 nM
Human Tyk2 kinase domain
  IC50: > 1000 nM
[2]
  IC50: > 1000 nM
[3]
  IC50: > 1000 nM

## O=C(N[C@H]1CCC[C@H]1O)c1cnn2ccc(N3CCC[C@@H]3c3cncc(F)c3)nc12 [Example 104, 5-((R)-2-(5-fluoropyridin-3-yl)pyrrolidin-1-yl)-N-((1S,2R)-2-hydroxycyclopentyl)pyrazolo[1,5-a]pyrimidine-3-carboxamide]
Human Jak2 kinase domain; [4]
  IC50: > 1000 nM
[1]; [5]
  IC50: 83.1 nM

## NC(=O)c1cnn2ccc(N3CCC[C@@H]3c3cc(F)ccc3C(F)(F)F)nc12 [Example 64, (R)-5-(2-(5-fluoro-2-(trifluoromethyl)phenyl)pyrrolidin-1-yl)pyrazolo[1,5-a]pyrimidine-3-carboxamide]
Human Jak2 kinase domain; [4]
  IC50: 575 nM
[1]; [5]
  IC50: 1.6 nM

## CC1(C)OCC(COc2cc(F)cc([C@H]3CCCN3c3ccn4ncc(C(=O)NC5CC5)c4n3)c2)O1 (stereo partly drawn) [Example 206, N-cyclopropyl-5-((2R)-2-(3-((2,2-dimethyl-1,3-dioxolan-4-yl)methoxy)-5-fluorophenyl)pyrrolidin-1-yl)pyrazolo[1,5-a]pyrimidine-3-carboxamide]
Human Jak2 kinase domain; [4]
  IC50: > 1000 nM
[1]; [5]
  IC50: 3.9 nM

## O=C(c1cnn2ccc(N3CCC[C@@H]3c3cncc(F)c3)nc12)N1CCCCC1 [Example 137, (R)-(5-(2-(5-fluoropyridin-3-yl)pyrrolidin-1-yl)pyrazolo[1,5-a]pyrimidin-3-yl)(piperidin-1-yl)methanone]
Human Jak2 kinase domain; [4]
  IC50: > 1000 nM
[1]; [5]
  IC50: 794 nM

## CONC(=O)c1cnn2ccc(N3CCC[C@@H]3c3cccc(F)c3)nc12 [Example 75]
Human Jak2 kinase domain; [4]
  IC50: > 1000 nM
[1]; [5]
  IC50: 6.95 nM
